Consider 24 compounds from ChEMBL document CHEMBL3638977, “Heteroaryl sodium channel inhibitors” (2015).

pIC50: −log10 of the molar value.

Chain of Sodium channel protein type 9 subunit alpha (Q15858 whole entry): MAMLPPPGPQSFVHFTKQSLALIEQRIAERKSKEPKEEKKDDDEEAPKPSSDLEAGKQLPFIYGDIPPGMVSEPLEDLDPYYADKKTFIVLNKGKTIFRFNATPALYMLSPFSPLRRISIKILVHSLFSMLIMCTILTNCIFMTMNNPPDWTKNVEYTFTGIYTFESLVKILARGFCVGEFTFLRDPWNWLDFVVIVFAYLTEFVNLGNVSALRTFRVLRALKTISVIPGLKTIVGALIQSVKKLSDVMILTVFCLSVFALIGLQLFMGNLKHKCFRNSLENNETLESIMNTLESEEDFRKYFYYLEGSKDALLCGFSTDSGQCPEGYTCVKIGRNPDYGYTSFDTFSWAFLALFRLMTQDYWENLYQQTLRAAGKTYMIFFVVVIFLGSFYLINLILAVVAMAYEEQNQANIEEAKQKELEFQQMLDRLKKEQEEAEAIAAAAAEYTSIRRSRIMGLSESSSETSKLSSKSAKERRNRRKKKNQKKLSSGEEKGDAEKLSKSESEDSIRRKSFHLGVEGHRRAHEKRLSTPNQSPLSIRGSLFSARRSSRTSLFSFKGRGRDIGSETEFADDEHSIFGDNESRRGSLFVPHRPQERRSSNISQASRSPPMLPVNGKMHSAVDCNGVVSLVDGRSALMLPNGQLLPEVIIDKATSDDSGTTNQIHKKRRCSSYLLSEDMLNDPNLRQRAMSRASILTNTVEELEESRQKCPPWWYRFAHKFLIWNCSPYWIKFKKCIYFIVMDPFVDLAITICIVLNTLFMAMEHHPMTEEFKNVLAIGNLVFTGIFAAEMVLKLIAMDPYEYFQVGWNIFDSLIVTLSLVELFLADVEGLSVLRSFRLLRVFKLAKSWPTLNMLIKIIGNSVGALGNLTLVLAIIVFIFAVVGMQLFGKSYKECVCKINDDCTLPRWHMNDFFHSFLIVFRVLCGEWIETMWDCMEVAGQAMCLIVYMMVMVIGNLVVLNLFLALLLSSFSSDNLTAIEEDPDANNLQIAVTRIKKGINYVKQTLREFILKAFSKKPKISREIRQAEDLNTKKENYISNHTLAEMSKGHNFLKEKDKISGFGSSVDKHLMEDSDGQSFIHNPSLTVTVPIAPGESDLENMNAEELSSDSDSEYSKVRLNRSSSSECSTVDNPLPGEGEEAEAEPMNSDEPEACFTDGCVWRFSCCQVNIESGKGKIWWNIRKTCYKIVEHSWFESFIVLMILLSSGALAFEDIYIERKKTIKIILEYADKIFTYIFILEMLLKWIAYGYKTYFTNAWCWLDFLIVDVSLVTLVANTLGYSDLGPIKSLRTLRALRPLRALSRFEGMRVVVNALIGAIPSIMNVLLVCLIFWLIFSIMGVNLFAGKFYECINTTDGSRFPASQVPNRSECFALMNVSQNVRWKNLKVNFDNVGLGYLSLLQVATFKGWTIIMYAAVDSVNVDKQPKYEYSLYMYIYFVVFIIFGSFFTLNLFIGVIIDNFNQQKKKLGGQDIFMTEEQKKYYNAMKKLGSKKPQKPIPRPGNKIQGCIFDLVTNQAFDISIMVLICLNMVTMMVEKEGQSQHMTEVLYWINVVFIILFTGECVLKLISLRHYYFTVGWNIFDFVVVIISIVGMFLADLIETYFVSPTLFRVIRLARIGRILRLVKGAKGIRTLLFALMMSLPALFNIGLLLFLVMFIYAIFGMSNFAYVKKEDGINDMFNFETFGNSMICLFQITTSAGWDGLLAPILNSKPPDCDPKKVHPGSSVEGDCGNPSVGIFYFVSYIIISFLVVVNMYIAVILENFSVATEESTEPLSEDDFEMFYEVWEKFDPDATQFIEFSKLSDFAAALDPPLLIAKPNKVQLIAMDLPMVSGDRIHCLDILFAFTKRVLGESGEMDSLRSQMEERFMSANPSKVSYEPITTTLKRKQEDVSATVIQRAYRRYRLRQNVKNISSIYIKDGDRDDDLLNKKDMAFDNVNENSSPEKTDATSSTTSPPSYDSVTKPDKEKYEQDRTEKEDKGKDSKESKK

The assay addresses Sodium channel protein type 9 subunit alpha (Homo sapiens, UniProt Q15858). Nature of the assay: In Vitro Assay: 293 cells stably transfected with either Nav 1.7 or with Nav 1.5 were recorded in population patch-clamp mode with the IonWorks® Quattro automated electrophysiology system in accordance with the manufacturer's specifications (Molecular Devices, LLC, Sunnyvale, Calif.). Sodium channel currents were measured in response to a train of depolarizations that induced successively greater inactivation.Cells were held at −110 mV for three seconds (Nav 1.7) or half a second (Nav 1.5) from a holding voltage of −15 mV, then put through a series of 26 pulses of 150 msec duration to −20 mV at a frequency of 5 Hz. Cells were then left unclamped for a period of 3 to 8 minutes while a single concentration of test compound was added. Cells were then reclamped and put through the same voltage protocol. Current at the end of the 26th pulse to −20 mV was subtracted from the peak current evoked by the 26th pulse to −20 mV to correct for leak current. The format is cell-based. On the technique in general: Patch clamp records ionic current or voltage across a cell membrane.
Turning to `COc1ccc(-c2cn(C)c3cc(S(=O)(=O)Nc4ncns4)ccc23)c(Cl)c1`, the pIC50 (commonly the negative decadic logarithm of the IC50, by convention in mol/L) is 5.64.
The result for `Cn1cc(-c2ccccc2C(F)(F)F)c2ccc(S(=O)(=O)Nc3ncns3)cc21` reads 5.22.
In turn, `Cn1cc(-c2ccc(F)c(C#N)c2)c2ccc(S(=O)(=O)Nc3ncns3)cc21` showed a negative logarithm of the IC50 (pIC50) of 5.89.
The compound `CN(C)c1cccc(-c2cn(C)c3cc(S(=O)(=O)Nc4ncns4)ccc23)c1` gave a pIC50 of 5.38.
With `Cn1cc(-c2cccc3ccccc23)c2ccc(S(=O)(=O)Nc3ncns3)cc21`, the pIC50 was 6.51.
Consider `COc1ccc(-c2cn(C)c3cc(S(=O)(=O)Nc4ncns4)ccc23)c2ccccc12`, for which the negative logarithm of the IC50 (pIC50) was 5.58.
The compound `Cn1cc(-c2cccc(C(F)(F)F)c2)c2ccc(S(=O)(=O)Nc3ncns3)cc21` showed a negative logarithm of the IC50 (pIC50) of 5.42. This pIC50 and that of the compound before are within 0.2 log units of each other.
With `COc1cc(OC)cc(-c2cn(C)c3cc(S(=O)(=O)Nc4ncns4)ccc23)c1`, the negative-log IC50 (pIC50) was 5.22.
Take `Cn1cc(-c2ccccc2)c2ccc(S(=O)(=O)Nc3ncns3)cc21`: the pIC50 is 5.81.
On to `Cc1noc(C)c1-c1cn(C)c2cc(S(=O)(=O)Nc3ncns3)ccc12`, for which the pIC50 was 5.58.
The value for `Cn1cc(-c2ccc(Br)cc2C(F)(F)F)c2ccc(S(=O)(=O)Nc3ncns3)cc21` was 5.45; that for `Cn1cc(-c2cccc(C#N)c2)c2ccc(S(=O)(=O)Nc3ncns3)cc21` was 5.70.
The result for `Cc1cnc(N)c(-c2cn(C)c3cc(S(=O)(=O)Nc4ncns4)ccc23)c1` reads 5.23.
As to `Cc1cc(C#N)ccc1-c1cn(C)c2cc(S(=O)(=O)Nc3ncns3)ccc12`, the pIC50 was 5.63.
As to `Cn1cc(-c2cccc(S(C)(=O)=O)c2)c2ccc(S(=O)(=O)Nc3ncns3)cc21`, the negative-log IC50 (pIC50) is 6.28.
The value for `Cn1cc(-c2ccc(OC(F)(F)F)cc2)c2ccc(S(=O)(=O)Nc3ncns3)cc21` was 5.33; that for `Cn1cc(-c2cccc3ncccc23)c2ccc(S(=O)(=O)Nc3ncns3)cc21` was 6.18.
The compound `COc1ccc(-c2cn(C)c3cc(S(=O)(=O)Nc4ncns4)ccc23)cc1C(F)(F)F` had a pIC50 of 5.35. This pIC50 lies 0.83 log units lower than the previous one.
Turning to `COc1ccc(-c2cn(C)c3cc(S(=O)(=O)Nc4ncns4)ccc23)c(OC)c1`, the negative logarithm of the IC50 (pIC50) was 6.04.
`Cn1cc(-c2ccc(C(F)(F)F)c(Cl)c2)c2ccc(S(=O)(=O)Nc3ncns3)cc21` had a negative logarithm of the IC50 (pIC50) of 5.50.
In turn, `COc1cc(F)ccc1-c1cn(C)c2cc(S(=O)(=O)Nc3ncns3)ccc12` gave a pIC50 of 6.47.
In the case of `Cn1cc(-c2cccc(OC(F)(F)F)c2)c2ccc(S(=O)(=O)Nc3ncns3)cc21`, the pIC50 is 6.06.
The value for `Cn1cc(-c2ccc(C#N)c(F)c2)c2ccc(S(=O)(=O)Nc3ncns3)cc21` was 5.51.
For `Cn1nccc1-c1cn(C)c2cc(S(=O)(=O)Nc3ncns3)ccc12`, the pIC50 is 5.15.
